Source: patent US20210337802A1, “COMPOSITION AND PROCESS FOR RECONDITIONING RESPIRATORS AND OTHER PERSONAL PROTECTIVE EQUIPMENT” (Tygrus, LLC, priority 2020, published 2021)

Experiments:
Format in all cases: physicochemical
[1] = Conductivity of diluted samples (EPA method 120.1); details: samples diluted with de-ionized water; Example materials at 1% by volume in water
From the text: In order to test for conductivity the samples are each diluted with de-ionized water for analysis. The testing is completed using a Mettler Toledo Seven Excellence Meter with a conductivity probe following EPA method 120.1.

[2] = Freeze point by DSC (USP <891>); details: Example materials at 1% by volume in water
Method: In order to evaluate freezing point, the samples are analyzed using a TA Instruments Q100 DSC equipped with an RCS-90 cooling system following USP <891>.

[3] = Acidity titration for hydrogen ion content (ASTM D1067 Test Method A); details: titrated to pH 8.6; Example materials at 1% by volume in water
From the text: The testing was completed using a Metrohm 826 Titrando equipped with a pH probe.

[4] = Excess hydrogen ion concentration and pH after admixing with water; details: 5 ml material in 5 ml deionized and distilled water, standard temperature and pressure
Method: The excess hydrogen ion concentration is measured as greater than 15% by volume and the pH of the material is determined to be 1.

In the case of “hydrogen (1+), triaqua-μ3-oxotri sulfate (1:1) [Example I]”, the Conductivity [1] is reported as 551 mS/cm, the “Melting Temperature (freeze point)” value [2] is reported as −9.07 °C and the “Acidity @ pH 8.6” value [3] is reported as 1307.28 meq/L. For the same substance, the pH [4] was 1.
